The target in the first experiment is unphosphorylated-BTK kinase domain (UP-BTK), GST-tagged human BTK (389-659aa) (Homo sapiens (Human), UniProt Q06187). Nature of the experiment: BTK Kinase Lanthascreen Binding Assay. Conditions: compound, 50 nM Tracer 236, 2 nM anti-GST antibody, 60 minutes; pIC50 = negative log of the IC50 in molar. As to the method: BTK Kinase Lanthascreen Binding Assay:
A BTK kinase lanthascreen binding assay monitors compound binding to unphosphorylated-BTK kinase domain (UP-BTK), by competing with a fluorescent labeled tracer. […] Data were analyzed using Xlfit™ version 5.3 from ID Business Solutions (Guildford), Microsoft Excel add-in. pIC50 refers to the negative log of the IC50 in molar.
Chain of unphosphorylated-BTK kinase domain (UP-BTK), GST-tagged human BTK (389-659aa) (Q06187 389-659): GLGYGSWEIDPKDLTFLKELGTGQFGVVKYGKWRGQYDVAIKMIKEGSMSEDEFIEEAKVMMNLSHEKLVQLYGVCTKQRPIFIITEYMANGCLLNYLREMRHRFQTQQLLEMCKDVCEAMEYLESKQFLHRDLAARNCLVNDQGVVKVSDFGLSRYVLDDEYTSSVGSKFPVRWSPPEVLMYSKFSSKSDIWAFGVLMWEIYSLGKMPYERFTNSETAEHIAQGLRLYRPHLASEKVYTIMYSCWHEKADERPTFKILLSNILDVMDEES
With `N[C@@H]1CC[C@H](NC(=O)c2sc3nccc4c3c2NC(=O)N4c2ccc(Oc3ccccc3)cc2)C1` [Example 164, N-((1S,3R)-3-Aminocyclopentyl)-4-oxo-5-(4-phenoxyphenyl)-4,5-dihydro-3H-1-thia-3,5,8-triazaacenaphthylene-2-carboxamide], the “BTK_I_binding pIC50” value is 5.19.

Regarding `C=CC(=O)N[C@H]1CCC[C@H]1NC(=O)c1sc2nccc3c2c1NC(=O)N3c1cc(-c2ccccc2)ncn1` [Example 167, N-((1R,2S)-2-Acrylamidocyclopentyl)-4-oxo-5-(6-phenylpyrimidin-4-yl)-4,5-dihydro-3H-1-thia-3,5,8-triazaacenaphthylene-2-carboxamide], the “BTK_I_binding pIC50” value is 8.34.

`C=CC(=O)N[C@H]1CCCC[C@H]1NC(=O)c1sc2nccc3c2c1NC(=O)N3c1ccnc(-c2ccccc2)c1` [Example 168, N-((1R,2S)-2-Acrylamidocyclohexyl)-4-oxo-5-(2-phenylpyridin-4-yl)-4,5-dihydro-3H-1-thia-3,5,8-triazaacenaphthylene-2-carboxamide]: the “BTK_I_binding pIC50” value came out at 8.10.

Consider `C=CC(=O)N[C@H]1CCC[C@H]1NC(=O)c1sc2nccc3c2c1NC(=O)N3c1ccnc(-c2ccccc2)c1` [Example 169, N-((1R,2S)-2-Acrylamidocyclopentyl)-4-oxo-5-(2-phenylpyridin-4-yl)-4,5-dihydro-3H-1-thia-3,5,8-triazaacenaphthylene-2-carboxamide], for which the “BTK_I_binding pIC50” value turned out to be 8.26.

Consider `C=CC(=O)N[C@H]1CCCC[C@H]1NC(=O)c1sc2nccc3c2c1NC(=O)N3c1ccc(Oc2ccccc2)nc1` [Example 172, N-((1R,2S)-2-Acrylamidocyclohexyl)-4-oxo-5-(6-phenoxypyridin-3-yl)-4,5-dihydro-3H-1-thia-3,5,8-triazaacenaphthylene-2-carboxamide], for which the “BTK_I_binding pIC50” value was found to be 8.35.

On to `C=CC(=O)N[C@@H]1CCC[C@H]1NC(=O)c1sc2nccc3c2c1NC(=O)N3c1ccc(Oc2ccccc2)nc1` [Example 177, N-((1R,2R)-2-Acrylamidocyclopentyl)-4-oxo-5-(6-phenoxypyridin-3-yl)-4,5-dihydro-3H-1-thia-3,5,8-triazaacenaphthylene-2-carboxamide], for which the “BTK_I_binding pIC50” value is 7.49.

For the molecule `C=CC(=O)N[C@H]1CCC[C@H]1NC(=O)c1sc2nccc3c2c1NC(=O)N3c1ccc(Oc2ccccc2)nc1` [Example 178, N-((1R,2S)-2-Acrylamidocyclopentyl)-4-oxo-5-(6-phenoxypyridin-3-yl)-4,5-dihydro-3H-1-thia-3,5,8-triazaacenaphthylene-2-carboxamide], the “BTK_I_binding pIC50” value is reported as 8.28.

With `C=CC(=O)N[C@H]1CCC[C@H]1NC(=O)c1sc2nccc3c2c1NC(=O)N3c1ccc(Oc2ccccc2)cn1` [Example 179, N-((1R,2S)-2-Acrylamidocyclopentyl)-4-oxo-5-(5-phenoxypyridin-2-yl)-4,5-dihydro-3H-1-thia-3,5,8-triazaacenaphthylene-2-carboxamide], the “BTK_I_binding pIC50” value came out at 8.37.

Take `C=CC(=O)N[C@H]1CCCC[C@H]1NC(=O)c1sc2nccc3c2c1NC(=O)N3c1cnc(OC2CCC2)cc1C` [Example 183, N-((1R,2S)-2-Acrylamidocyclohexyl)-5-(6-cyclobutoxy-4-methylpyridin-3-yl)-4-oxo-4,5-dihydro-3H-1-thia-3,5,8-triazaacenaphthylene-2-carboxamide]: the “BTK_I_binding pIC50” value is on record as 7.58.

Take `C=CC(=O)N[C@@H]1CC[C@@H](NC(=O)c2sc3nccc4c3c2NC(=O)N4c2ccc(Oc3ccccc3)cc2C)C1` [Example 184, N-((1R,3R)-3-Acrylamidocyclopentyl)-5-(2-methyl-4-phenoxyphenyl)-4-oxo-4,5-dihydro-3H-1-thia-3,5,8-triazaacenaphthylene-2-carboxamide]: the “BTK_I_binding pIC50” value came to 7.55.

As to `C=CC(=O)N[C@@H]1CCC[C@H]1NC(=O)c1sc2nccc3c2c1NC(=O)N3c1ccc(Oc2ccccc2)cn1` [Example 185, N-((1R,2R)-2-Acrylamidocyclopentyl)-4-oxo-5-(5-phenoxypyridin-2-yl)-4,5-dihydro-3H-1-thia-3,5,8-triazaacenaphthylene-2-carboxamide], the “BTK_I_binding pIC50” value is on record as 7.56.

As to `C=CC(=O)N[C@H]1CCCC[C@H]1NC(=O)c1sc2nccc3c2c1NC(=O)N3c1ccc(OC2CCC2)nc1C` [Example 187, N-((1R,2S)-2-Acrylamidocyclohexyl)-5-(6-cyclobutoxy-2-methylpyridin-3-yl)-4-oxo-4,5-dihydro-3H-1-thia-3,5,8-triazaacenaphthylene-2-carboxamide], the “BTK_I_binding pIC50” value is on record as 7.30.

Consider `C=CC(=O)N[C@H]1CCC[C@H]1NC(=O)c1sc2nccc3c2c1NC(=O)N3c1cc(-c2ccccc2)ccn1` [Example 189, N-((1R,2S)-2-Acrylamidocyclopentyl)-4-oxo-5-(4-phenylpyridin-2-yl)-4,5-dihydro-3H-1-thia-3,5,8-triazaacenaphthylene-2-carboxamide], for which the “BTK_I_binding pIC50” value is 8.23.

`C=CC(=O)N[C@@H]1CC[C@H](NC(=O)c2sc3nccc4c3c2NC(=O)N4c2ccc(Oc3ccccc3)c(Cl)c2)C1` [Example 191, N-((1S,3R)-3-Acrylamidocyclopentyl)-5-(3-chloro-4-phenoxyphenyl)-4-oxo-4,5-dihydro-3H-1-thia-3,5,8-triazaacenaphthylene-2-carboxamide]: the “BTK_I_binding pIC50” value turned out to be 7.95.

For `C=CC(=O)N[C@H]1CCC[C@H]1NC(=O)c1sc2nccc3c2c1NC(=O)N3c1cncc(-c2ccccc2)c1` [Example 192, N-((1R,2S)-2-Acrylamidocyclopentyl)-4-oxo-5-(5-phenylpyridin-3-yl)-4,5-dihydro-3H-1-thia-3,5,8-triazaacenaphthylene-2-carboxamide], the “BTK_I_binding pIC50” value is 7.92.

`C=CC(=O)N[C@H]1CCC[C@H]1NC(=O)c1sc2nccc3c2c1NC(=O)N3c1cccc(-c2ccccc2)c1` [Example 193, 5-([1,1′-Biphenyl]-3-yl)-N-((1R,2S)-2-acrylamidocyclopentyl)-4-oxo-4,5-dihydro-3H-1-thia-3,5,8-triazaacenaphthylene-2-carboxamide]: the “BTK_I_binding pIC50” value amounted to 8.09.

Regarding `C=CC(=O)N[C@H]1CCC[C@H]1NC(=O)c1sc2nccc3c2c1NC(=O)N3c1cccc(-c2ccccn2)c1` [Example 194, N-((1R,2S)-2-Acrylamidocyclopentyl)-4-oxo-5-(3-(pyridin-2-yl)phenyl)-4,5-dihydro-3H-1-thia-3,5,8-triazaacenaphthylene-2-carboxamide], the “BTK_I_binding pIC50” value is listed as 7.89.

Consider `C=CC(=O)N[C@@H]1CC[C@H](NC(=O)c2sc3nccc4c3c2NC(=O)N4c2ccnc(-c3ccccc3)c2)C1` [Example 198, N-((1S,3R)-3-Acrylamidocyclopentyl)-4-oxo-5-(2-phenylpyridin-4-yl)-4,5-dihydro-3H-1-thia-3,5,8-triazaacenaphthylene-2-carboxamide], for which the “BTK_I_binding pIC50” value was determined as 7.98.

On to `C=CC(=O)N[C@H]1CCC[C@H]1NC(=O)c1sc2nccc3c2c1NC(=O)N3c1ccc(Oc2cccnc2)cc1C` [Example 199, N-((1R,2S)-2-Acrylamidocyclopentyl)-5-(2-methyl-4-(pyridin-3-yloxy)phenyl)-4-oxo-4,5-dihydro-3H-1-thia-3,5,8-triazaacenaphthylene-2-carboxamide], for which the “BTK_I_binding pIC50” value was 8.13.

For `C=CC(=O)N[C@H]1CCC[C@H]1NC(=O)c1sc2nccc3c2c1NC(=O)N3c1cnc(Oc2ccccc2)cn1` [Example 201, N-((1R,2S)-2-Acrylamidocyclopentyl)-4-oxo-5-(5-phenoxypyrazin-2-yl)-4,5-dihydro-3H-1-thia-3,5,8-triazaacenaphthylene-2-carboxamide], the “BTK_I_binding pIC50” value is 8.32.

Regarding `C=CC(=O)N[C@H]1CCC[C@H]1NC(=O)c1sc2nccc3c2c1NC(=O)N3c1cccc(-c2cccnc2)c1` [Example 202, N-((1R,2S)-2-Acrylamidocyclopentyl)-4-oxo-5-(3-(pyridin-3-yl)phenyl)-4,5-dihydro-3H-1-thia-3,5,8-triazaacenaphthylene-2-carboxamide], the “BTK_I_binding pIC50” value was 7.90.

In the case of `C=CC(=O)N[C@H]1CCC[C@H]1NC(=O)c1sc2nccc3c2c1NC(=O)N3c1cnnc(-c2ccccc2)c1` [Example 203, N-((1R,2S)-2-Acrylamidocyclopentyl)-4-oxo-5-(6-phenylpyridazin-4-yl)-4,5-dihydro-3H-1-thia-3,5,8-triazaacenaphthylene-2-carboxamide], the “BTK_I_binding pIC50” value came out at 8.06.

As to `C=CC(=O)N[C@H]1CCC[C@H]1NC(=O)c1sc2nccc3c2c1NC(=O)N3c1ccc(OC(C)C)cc1` [Example 205, N-((1R,2S)-2-Acrylamidocyclopentyl)-5-(4-isopropoxyphenyl)-4-oxo-4,5-dihydro-3H-1-thia-3,5,8-triazaacenaphthylene-2-carboxamide], the “BTK_I_binding pIC50” value is 7.62.

In the case of `C=CC(=O)N[C@H]1CCC[C@H]1NC(=O)c1sc2nccc3c2c1NC(=O)N3c1ccc(OC2CCOCC2)cc1C` [Example 206, N-((1R,2S)-2-Acrylamidocyclopentyl)-5-(2-methyl-4-((tetrahydro-2H-pyran-4-yl)oxy)phenyl)-4-oxo-4,5-dihydro-3H-1-thia-3,5,8-triazaacenaphthylene-2-carboxamide], the “BTK_I_binding pIC50” value turned out to be 7.33.

Take `C=CC(=O)N[C@H]1CCC[C@H]1NC(=O)c1sc2nccc3c2c1NC(=O)N3c1ccnc(C(C)C)c1` [Example 207, N-((1R,2S)-2-Acrylamidocyclopentyl)-5-(2-isopropylpyridin-4-yl)-4-oxo-4,5-dihydro-3H-1-thia-3,5,8-triazaacenaphthylene-2-carboxamide]: the “BTK_I_binding pIC50” value amounted to 7.53.

Staying with this experiment, now noted: read-out: BTK_I_binding pIC50 (converted).
With `C=CC(=O)N[C@H]1CC[C@@H](NC(=O)c2sc3nccc4c3c2NC(=O)N4c2ccnc(-c3ccccc3)c2)C1` [Example 208, N-((1R,3S)-3-Acrylamidocyclopentyl)-4-oxo-5-(2-phenylpyridin-4-yl)-4,5-dihydro-3H-1-thia-3,5,8-triazaacenaphthylene-2-carboxamide], the IC50 is greater than 1000 nM.

The values are drawn from US10934310B2, “Inhibitors of Bruton's tyrosine kinase and method of their use” (JANSSEN PHARMACEUTICA NV, priority 2015, dated 2021).
